Results published in the CombiSolv-Exp solvation set (Vermeire and Green 2021).

Experiment: solvent given as SMILES

ClC(Cl)(Cl)Cl
Settings	solvation free energy, 298 K [kcal/mol]
in Brc1cccc2ccccc12	-3.92
in C1CCCC1	-4.4
in C1CCOC1	-4.65
in C1COCCO1	-4.32
in C=CCCCCCCCCCCCCCC	-3.81
in CC#N	-3.66
in CC(=O)CC(C)C	-4.22
in CC(=O)N(C)C	-4.52
in CC(=O)OCc1ccccc1	-3.97
in CC(C)(C)O	-3.74
in CC(C)=O	-4.15
in CC(C)CCCC(C)CCCC(C)CCCCC(C)CCCC(C)CCCC(C)C	-3.74
in CCC(C)=O	-4.15
in CCCCCC	-4.14
in CCCCCCC	-4.09
in CCCCCCCC	-3.98
in CCCCCCCCC=CCCCCCCCC(=O)OCC(COC(=O)CCCCCCCC=CCCCCCCCC)OC(=O)CCCCCCCC=CCCCCCCCC	-4
in CCCCCCCCCCCCCC	-3.8
in CCCCCCCCCCCCCCCC	-3.85
in CCCCCCCCCOC(=O)c1ccccc1C(=O)OCCCCCCCCC	-3.85
in CCCCCCCCN(CCCCCCCC)CCCCCCCC	-3.79
in CCCCCCCCO	-3.79
in CCCCCCO	-3.84
in CCCCCN(CCCCC)CCCCC	-3.96
in CCCCCl	-4.28
in CCCCN(C=O)CCCC	-4.11
in CCCCN(CCCC)CCCC	-3.84
in CCCCO	-3.87
in CCCCOC	-4.39
in CCCCOC(C)=O	-4.26
in CCCCOCC	-4.29
in CCCCOCCCC	-4.16
in CCCO	-3.75
in CCCOCCC	-4.25
in CCO	-3.74
in CCOC(=O)c1ccccc1C(=O)OCC	-3.77
in CCOC(C)=O	-4.23
in CCOCC	-4.41
in CI	-4.51
in CN1CCCC1=O	-4.16
in CNC(C)=O	-3.9
in CO	-3.66
in CS(C)=O	-3.66
in CSC	-4.63
in Cc1ccc(C)cc1	-4.35
in Cc1cccc(C)c1	-4.29
in Cc1ccccc1C	-4.34
in ClC(Cl)Cl	-4.43
in ClCCCl	-4.15
in NC=O	-2.16
in O	0.07
in O=C1CCCCC1	-4.32
in S=C=S	-4.52
in [2H]O[2H]	-0.62
in c1ccc2ncccc2c1	-4.07

CCOCOCC
Settings	solvation free energy, 298 K [kcal/mol]
in CCCCCl	-4.67
in ClC(Cl)(Cl)Cl	-4.97
in ClCCl	-5.47
in O	-2.96

COC(=O)CC#N
Settings	solvation free energy, 298 K [kcal/mol]
in O	-6.72

CC[N+](=O)[O-]
Settings	solvation free energy, 298 K [kcal/mol]
in C=CCCCCCCCCCCCCCC	-3.33
in CCC(C)=O	-5.25
in CCCC(C)C	-4.09
in CCCCCCC	-3.34
in CCCCCCCC	-3.37
in CCCCCCCCCCCCCCCC	-3.17
in CCCCCCCCO	-3.93
in COC(C)=O	-5.46
in O	-3.72
in [2H]O[2H]	-3.75

CCCCCCCCCCCCCC(=O)OCC
Settings	solvation free energy, 298 K [kcal/mol]
in O	-7.32

CCC(C)Br (stereo unspecified)
Settings	solvation free energy, 298 K [kcal/mol]
in C=CCCCCCCCCCCCCCC	-3.96
in O	-0.27

Cc1ccccc1
Settings	solvation free energy, 298 K [kcal/mol]
in Brc1ccccc1	-5.15
in C1CCCCC1	-4.89
in C1CCOC1	-5.44
in C1COCCO1	-5.15
in C=CCCCCCCCCCCCCCC	-4.57
in CC1CCS(=O)(=O)C1	-4.64
in CC1COC(=O)O1	-4.43
in CC#N	-4.72
in CC(=O)N(C)C	-4.91
in CC(=O)O	-4.57
in CC(=O)c1ccccc1	-4.93
in CC(C)(C)O	-4.41
in CC(C)=O	-4.97
in CC(C)CC(C)(C)C	-4.66
in CC(C)CCCC(C)CCCC(C)CCCCC(C)CCCC(C)CCCC(C)C	-4.43
in CC(C)CCO	-4.47
in CC(C)CO	-4.37
in CC(C)O	-4.38
in CC(C)OC(C)C	-4.89
in CC(Cl)Cl	-5.32
in CC(O)CO	-3.58
in CCBr	-5.44
in CCC#N	-5.16
in CCC(C)=O	-5.07
in CCCC#N	-5.01
in CCCCC	-4.75
in CCCCC(CC)COC(=O)CCCCC(=O)OCC(CC)CCCC	-4.78
in CCCCC(CC)COC(=O)c1ccccc1C(=O)OCC(CC)CCCC	-4.55
in CCCCCC	-4.78
in CCCCCCC	-4.74
in CCCCCCCCCC	-4.66
in CCCCCCCCCCCCCCCC	-4.57
in CCCCCCCCO	-4.5
in CCCCCCO	-4.53
in CCCCCO	-4.49
in CCCCCl	-5.16
in CCCCN(C=O)CCCC	-4.91
in CCCCO	-4.52
in CCCCOC(=O)c1ccccc1C(=O)OCCCC	-4.82
in CCCCOC(C)=O	-5.5
in CCCCOCCCC	-4.88
in CCCO	-4.51
in CCN1CCCC1=O	-5.06
in CCN(CC)C(C)=O	-4.97
in CCN(CC)CC	-4.93
in CCNC(C)=O	-4.57
in CCNC=O	-4.49
in CCO	-4.46
in CCOC(=O)c1ccccc1C(=O)OCC	-4.68
in CCOC(C)=O	-5.04
in CCOCC	-5.12
in CCOCCOCCOCC	-4.96
in CCOc1ccccc1	-5.02
in CN1CCCC1=O	-4.95
in CN1CCCCC1=O	-5.02
in CN(C)C=O	-4.89
in CN(C)P(=O)(N(C)C)N(C)C	-5
in CNC(C)=O	-4.57
in CNC=O	-4.35
in CO	-4.35
in COCCO	-4.55
in COc1ccccc1	-5.04
in CS(C)=O	-4.53
in Cc1ccc(C)cc1	-5.08
in Cc1cccc(C)n1	-5.1
in Cc1cccc(O)c1	-4.63
in Cc1ccccn1	-5.12
in ClC(Cl)(Cl)Cl	-5.18
in ClC(Cl)Cl	-5.53
in ClCCCl	-5.3
in ClCCl	-5.5
in Clc1ccccc1	-5.2
in FC(F)(F)C(F)(F)C(F)(F)C(F)(F)C(F)(F)C(F)(F)F	-3.08
in Fc1c(F)c(F)c(F)c(F)c1F	-5.33
in Fc1ccccc1	-5.24
in ICI	-4.53
in Ic1ccccc1	-5.03
in NC=O	-3.02
in NCCO	-3.5
in Nc1ccccc1	-4.6
in O	-0.85
in O=C1CCCCC1	-5.13
in O=C1CCCO1	-4.72
in O=CN1CCOCC1	-4.48
in O=Cc1ccco1	-4.56
in OCCCCCO	-3.84
in OCCCCO	-3.79
in OCCCO	-3.52
in OCCO	-3.02
in OCCOCCOCCOCCO	-3.99
in OCCS	-4.12
in OCc1ccccc1	-4.53
in S=C=S	-5.33
in [2H]O[2H]	-0.99
in c1ccc2ncccc2c1	-4.82
in c1ccc(COCc2ccccc2)cc1	-4.79
in c1ccccc1	-5.32
in c1ccncc1	-5.11
